Each structure is given as a SMILES string.

For this test, the target named is T1, Mitochondrial peptide methionine sulfoxide reductase (Bos taurus, UniProt P54149).
T1 sequence (P54149 whole entry): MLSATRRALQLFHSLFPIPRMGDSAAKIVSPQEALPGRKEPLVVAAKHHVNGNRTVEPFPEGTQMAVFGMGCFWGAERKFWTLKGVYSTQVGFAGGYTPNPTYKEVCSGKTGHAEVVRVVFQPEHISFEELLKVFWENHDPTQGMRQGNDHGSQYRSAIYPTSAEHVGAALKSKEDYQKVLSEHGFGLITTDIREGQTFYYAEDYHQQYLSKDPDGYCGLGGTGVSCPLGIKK
The term IC50 denotes the concentration that inhibits the measured activity by half. `Cc1cc([N+](=O)[O-])ccc1Nc1nc2ccccc2n2cnnc12` [N-(2-methyl-4-nitrophenyl)[1,2,4]triazolo[4,3-a]quinoxalin-4-amine] yielded an IC50 of over 155 µM.
The value for `COc1cccc(Nc2nc3ccccc3n3nnnc23)c1` [N-(3-methoxyphenyl)-[1,2,3,4]tetrazolo[1,5-a]quinoxalin-4-amine] was over 155 µM; that for `CCOc1ccc(N(C)S(=O)(=O)c2cc(-c3cc(C)no3)ccc2CC)cc1` [N-(4-ethoxyphenyl)-2-ethyl-N-methyl-5-(3-methyl-1,2-oxazol-5-yl)benzenesulfonamide] was over 155 µM.
The value for `CCOc1ccc(N(C)S(=O)(=O)c2cc(-c3cc(C)no3)ccc2C(C)C)cc1` [N-(4-ethoxyphenyl)-N-methyl-5-(3-methyl-1,2-oxazol-5-yl)-2-propan-2-yl-benzenesulfonamide] was over 155 µM; that for `Cc1nn2c(=O)cc(CSc3ccccc3NC(=O)c3ccccc3)nc2s1` [N-[2-[(2-methyl-5-oxo-[1,3,4]thiadiazolo[3,2-a]pyrimidin-7-yl)methylsulfanyl]phenyl]benzamide] was over 155 µM; that for `COc1ccc2nc(C)cc(N=NCc3ccc(F)cc3)c2c1` [N-[(4-fluorophenyl)methylideneamino]-6-methoxy-2-methyl-4-quinolinamine] was 12.8 µM.
As to `COc1ccc(C=NNC(=O)C(C=Nc2nccc(C)n2)NC(=O)c2ccccc2)cc1` (centres undefined) [N-[(E)-3-[(2Z)-2-[(4-methoxyphenyl)methylidene]hydrazinyl]-1-[(4-methylpyrimidin-2-yl)amino]-3-oxidanylidene-prop-1-en-2-yl]benzamide], the midpoint of inhibition, the IC50, lay at 149 µM.
In turn, `CN(c1ccccc1)S(=O)(=O)c1ccc2[nH]c(O)nc2c1` [N-methyl-2-oxidanylidene-N-phenyl-1,3-dihydrobenzimidazole-5-sulfonamide] showed an IC50 of over 155 µM.
Take `Nc1ccccc1Nc1ccc([N+](=O)[O-])cc1[N+](=O)[O-]` [N~1~-(2,4-dinitrophenyl)-1,2-benzenediamine]: the IC50 was over 155 µM.
The result for `O=C(O)c1cc(O)c2c(c1)C(=O)c1cccc(O)c1C2=O` [RHEIN] reads over 155 µM; that for `N#Cc1c(-n2cccc2CN=O)sc2c1CCCC2` [SMR000009830], over 155 µM.
Molecule `O=c1cnn(-c2ccccc2)c(-c2ccccc2)c1` [SMR000060054] returned an IC50 of over 155 µM.
`c1ccc2c(c1)nc(-c1ccncc1)n1nnnc21` [SMR000060326] had an IC50 of over 155 µM.
The result for `Cc1ccc(-c2csc3nc(C)n(-n4c(C)ccc4C)c(=O)c23)o1` [SMR000061692] reads over 155 µM.
`CCOc1cc(S(=O)(=O)NC2CC2)c(OCC)cc1-n1cnnn1` [SMR000123810] registered an IC50 of over 155 µM.
The result for `Cc1cc(OC(C)C)c2c(-c3ccccc3)cc(=O)oc2c1` [SMR000141385] reads over 155 µM; that for `N#CC(C=Nc1ccccc1O)c1nc2ccccc2o1` (centres undefined) [SMR000171441], over 155 µM; that for `O=C(N/N=C/c1ccc2c(c1)OCO2)c1ccc(Br)o1` [SMR000185016], over 155 µM.
For `Cc1ccc(NC(=O)C2CCCO2)cc1[N+](=O)[O-]` (centres undefined) [SMR000197718], the IC50 was over 155 µM.
The value for `Cc1ccc(NS(=O)(=O)c2ccc3c(c2)C(=O)c2ccccc2C3=O)c(C)c1` [SMR000207645] was over 155 µM.
For `Cn1c2c(c(=O)n(C)c1=O)C(C(F)(F)F)(C(F)(F)F)NC(C1CCCCC1)=N2` [SMR000219726], the IC50 was over 155 µM.
The result for `O=C(O)Cc1sc(N=NC=CCc2ccccc2)nc1O` [SMR000236709] reads 118 µM; that for `FC(F)(F)c1ccc(/N=C/c2sc(N3CCOCC3)nc2-c2ccccc2)cc1` [SMR000260329], over 155 µM.
The value for `COc1ccc(NC(=O)COC(=O)C2CCCCC2)c([N+](=O)[O-])c1` [SMR000261453] was over 155 µM.
The value for `Cc1ccc(/C=C/C(=O)Nc2nccs2)o1` [SMR000261703] was over 155 µM; that for `COc1ccc(/C=N/N2C(=O)C3C4C=CC(C4)C3C2=O)cc1[N+](=O)[O-]` (centres undefined) [SMR000283338] was over 155 µM.
Molecule `CCOC(=O)N/N=C1/c2ccccc2-c2nc3nonc3nc21` [SMR000305141] displayed a concentration for half-maximal inhibition (IC50) of over 155 µM.
Molecule `Cc1nonc1C1CCCN1Cc1c[nH]nc1-c1ccc(-c2ccccc2)cc1` (centres undefined) [SMR000316348] yielded an IC50 of over 155 µM.
The molecule `CNS(=O)(=O)c1cccc(C(=O)OCC(=O)c2cc3ccccc3o2)c1` [SMR000364126] came in with an IC50 of over 155 µM.
The molecule `COc1cccc2cc(-c3cc(=O)oc4ccc(O)cc34)oc12` [SMR000543646] gave an IC50 of over 155 µM.
For the molecule `COc1cccc2c1Oc1cc([N+](=O)[O-])cc(N(C)C(C)=O)c1C=C2` [SMR000559347], the IC50 was over 155 µM.
As to `CCOc1ccc(N(C)S(=O)(=O)c2cc(-c3cc(C)no3)ccc2C)cc1` [SMR000630369], the IC50 is over 155 µM.
The result for `NC(=O)COc1ccc2oc(=O)cc(-c3cc4ccccc4o3)c2c1` [SMR000641652] reads over 155 µM; that for `CC(=O)COc1ccc2oc(=O)cc(-c3cc4ccccc4o3)c2c1` [SMR000641655], over 155 µM.
The molecule `Cc1ccc(C)c(NC(=O)/C(C#N)=C/c2ccc[nH]2)c1` [SMR000678612] returned an IC50 of over 155 µM.
The result for `COc1ccc(Nc2ccc(C(F)(F)F)cc2[N+](=O)[O-])cn1` [SMR000688981] reads over 155 µM; that for `O=C(COC(=O)C1=NN(c2ccccc2)C(=O)CC1)Nc1ccc([N+](=O)[O-])cc1C(F)(F)F` [SMR001244149], over 155 µM; that for `Cc1ccc(CC2(C)C(=O)Nc3ccc(OC(F)(F)F)cc32)cc1` (centres undefined) [SMR001453901], over 155 µM.
`Cc1ccccc1Nc1ncnc2n[nH]cc12` [SMR001556847] returned an IC50 of over 155 µM.
The result for `CC1(C)C2CCC(CN=C(N)CSS(=O)(=O)O)C1C2` (centres undefined) [SMR001821892] reads over 155 µM; that for `COc1cccc(/C=N/n2c(CO)nc3ccccc32)c1OC` [[1-[(E)-(2,3-dimethoxyphenyl)methylideneamino]-2-benzimidazolyl]methanol], over 155 µM.
Molecule `COC(=O)CN(c1nc(C)c(Br)c(OC)n1)S(=O)(=O)c1ccccc1` [[Benzenesulfonyl-(5-bromo-4-methoxy-6-methyl-pyrimidin-2-yl)-amino]-acetic acid methyl ester] registered a half-inhibitory concentration (IC50) of over 155 µM.
In the case of `COC(=O)c1ccccc1NC(=S)NC(=O)C1CC1` [methyl 2-({[(cyclopropylcarbonyl)amino]carbothioyl}amino)benzoate], the IC50 was over 155 µM.
In turn, `COC(=O)/C(=C1/Oc2ccc(C)cc2S1)C(F)(F)F` [methyl (2E)-3,3,3-trifluoro-2-(5-methyl-1,3-benzoxathiol-2-ylidene)propanoate] had an IC50 of over 155 µM.
